Data published in US10906900B2, “Compounds for using in imaging and particularly for the diagnosis of neurodegenerative diseases” (CENTRE NATIONAL DE LA RECHERCHE SCIENTIFIQUE, priority 2016, dated 2021).
Like-named read-outs stand apart in the source and are kept apart here.

Assays:
Aβ1-42 fibers = Aβ1-42 fibers (Homo sapiens, UniProt P05067); assay: In vitro direct determination of Kd and Bmax by fluorescence, Aβ1-42 fibers; format: binding; conditions: for Aβ Bmax1: density of binding sites; for Aβ Bmax1 / Kd: direct fluorescence, Scatchard analysis; for Kd: Aβ1-42 fibers 500 nM, read-out: Aβ Kd1; for Aβ Bmax1 (number of sites/monomer): in brackets in the Bmax cell
Aβ1-42 fibers, sequence (P05067 672-713 limits assumed): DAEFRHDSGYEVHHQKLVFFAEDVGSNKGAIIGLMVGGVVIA
Procedure: (§1) To obtain fiber assembly, α-syn is incubated in Tris-HCl 50 mM pH7.5, KCl 150 mM at 37° C. under continuous agitation during 4 days. The lyophilized Aβ1-42 was dissolved in 1,1,1,3,3,3-Hexafluoro-2-propanol (HFIP) at 0.2 mg/mL and incubated for 24 h at 37° C. to obtain the complete solubilization. The HFIP is evaporated under nitrogen stream to obtain a dry product. To start the fiber assembly, the dry peptide is resuspended in PBS pH7.4, 10% (v/v) DMSO and incubated at 37° C. for 3 days without agitation.
(§2) Fresh solutions of each test compound (2.5 mM in DMSO) are diluted in PBS pH=7.4 at concentrations between 0.5 nM and 5 μM in the presence or absence of α-syn (200 nM), Aβ1-42 (500 nM) or Tau (200 nM) fibers in a final 2 mL volume. After 1 h of incubation at RT, the binding of each compound to α-syn, A131-42 or Tau fibers is measured by fluorescence using the spectral changes of the compounds during their binding to the fibers, using the appropriate excitation/emission wavelengths (those giving the highest fluorescence variation during binding to the fibres). For each concentration of compound added to the fibres, the bound and free fractions are measured by fluorescence according to the following equation: Fm=FBB+FF×(T−B)
(§3) The value of FF is determined by measuring the fluorescence of known concentrations of compounds in the absence of fibres. The FB value is determined by measuring the maximum fluorescence of known concentrations of compounds in the presence of saturated concentrations of α-syn, Aβ1-42, or Tau fibers.
(§4) The values of B thus determined versus the concentrations of the free fractions (T-B) are analyzed according to the Michaelis-Menten equation. The affinity (Kd) and density of binding sites within the fibers of α-syn, Aβ1-42 or Tau (Bmax) are determined by Scatchard analysis, which also makes it possible to highlight multiple site classes.

Aβ1-42 fibres = Aβ1-42 fibres (Homo sapiens, UniProt P05067); assay: In vitro inhibition of ThT binding and determination of Ki (fluorescence), Aβ1-42 fibres; conditions: vs Thioflavin T 500 nM; Aβ1-42 fibres 500 nM; PBS pH7.4, 1 h RT; read-out: Ki Aβ
Aβ1-42 fibres, sequence (P05067 672-713 limits assumed): as above
Procedure: as §1
(§5) Protein fibers are systematically observed by electron microscopy (Jeol 1400). The images are recorded with a CCD camera (Gatan Orius). Finally, the percentage of α-syn and Aβ1-42 aggregated into fibers is checked on the pellet after centrifugation at 40000×g for 20 min and determination of the concentration of soluble protein/peptide remaining in the supernatant.
(§6) The samples are incubated for 1 h at room temperature (RT) to reach equilibrium. […] From each curve, the IC50 value is measured using the following equation: Y=min+(max−min)/1+([…])^slope

α-syn fibers = α-syn fibers (Homo sapiens (Human), UniProt P37840); assay: In vitro direct determination of Kd and Bmax by fluorescence, α-syn fibers; format: binding; conditions: for αsyn Bmax1: density of binding sites; for αsyn Bmax1 / Kd: direct fluorescence, Scatchard analysis; for Kd: α-syn fibers 200 nM, read-out: αsyn Kd1; for αsyn Bmax1 (number of sites/monomer): in brackets in the Bmax cell; for α-syn selectivity according to analysis of Kd (Tables 6 and 7): selective = good affinity and at least two times greater than for at least one of the two other proteins
Procedure: as §1, §2, §3, §4

Tau fibers = Tau fibers (Homo sapiens (Human), UniProt P10636); assay: In vitro direct determination of Kd and Bmax by fluorescence, Tau fibers; format: binding; conditions: for Tau Bmax1: density of binding sites; for Tau Bmax1 / Kd: direct fluorescence, Scatchard analysis; for Kd: Tau fibers 200 nM, read-out: Tau Kd1; for Tau Bmax1 (number of sites/monomer): in brackets in the Bmax cell; for Tau selectivity according to analysis of Kd (Tables 6 and 7): selective = good affinity and at least two times greater than for at least one of the two other proteins
Tau fibers, sequence (P10636 other isoform, or with tags, fused parts or gaps): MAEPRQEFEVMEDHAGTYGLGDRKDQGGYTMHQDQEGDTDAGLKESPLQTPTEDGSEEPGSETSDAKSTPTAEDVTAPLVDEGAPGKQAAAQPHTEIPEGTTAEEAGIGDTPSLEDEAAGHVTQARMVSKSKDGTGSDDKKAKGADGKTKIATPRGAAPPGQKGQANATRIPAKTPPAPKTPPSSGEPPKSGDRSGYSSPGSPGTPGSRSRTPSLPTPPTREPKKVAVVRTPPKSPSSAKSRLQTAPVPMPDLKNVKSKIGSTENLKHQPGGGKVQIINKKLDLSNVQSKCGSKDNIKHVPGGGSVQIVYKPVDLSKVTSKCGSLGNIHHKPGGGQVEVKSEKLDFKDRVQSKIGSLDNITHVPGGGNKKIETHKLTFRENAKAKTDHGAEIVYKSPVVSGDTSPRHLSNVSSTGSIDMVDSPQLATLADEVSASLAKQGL
Procedure: Human Tau protein (isoform h2N4RTau) is expressed in the vector pET11d in E. Coli (strain BL21 (DE3), (Stratagene, La Jolla, Calif.)) and purified according to the described method (Barghorn S, Biernat J, Mandelkow E. (2005) Methods Mol Biol. 299:35-51). The Tau purified concentration is determined by measuring the absorbance at 280 nm using a molar extinction coefficient of 7450 M^−1 cm^−1.
(§7) Tau protein in PBS buffer containing 1 mM DTT is assembled into fiber in the presence of one twelfth of a molar equivalent of heparin at 37° C. under stirring.
as §2
Where Fm is the fluorescence measured in the presence of fibers at a concentration T of the compound added to the fibers, FB is the specific fluorescence of the bound compound, FF is the specific fluorescence of the free compound, and B is the concentration of the fiber bound compound at a given concentration T (Bell, J. E., “Fluorescence; Solution Studies”, Spectrometry in Biochemistry, vol. I, Bell, J. E., ed., CRC Press, Inc., Boca Raton, Fla., pp. 155-194 (1981)).
as §3
Thus, at each point, the concentration of bound compound B is determined according to the following equation: B=(Fm−FF×T)/(FB−FF)
as §4

α-syn fibres = α-syn fibres (Homo sapiens (Human), UniProt P37840); assay: In vitro inhibition of ThT binding and determination of Ki (fluorescence), α-syn fibres; conditions: for α-syn selectivity according to analysis of Ki (Table 5): selective = good affinity and at least two times greater than for at least one of the two other proteins; for Ki: vs Thioflavin T 500 nM, α-syn fibres 200 nM, PBS pH7.4, 1 h RT, read-out: Ki αsyn
Procedure: as §1, §5, §6

Tau fibres = Tau fibres (Homo sapiens (Human), UniProt P10636); assay: In vitro inhibition of ThT binding and determination of Ki (fluorescence), Tau fibres; conditions: for Tau selectivity according to analysis of Ki (Table 5): selective = good affinity and at least two times greater than for at least one of the two other proteins
Tau fibres, sequence (P10636 other isoform, or with tags, fused parts or gaps): as above
Procedure: as §7, §6

[1] = vs Thioflavin T 500 nM, Tau fibres 200 nM, PBS pH7.4, 1 h RT

SMILES | Aβ Bmax1 (Aβ1-42 fibers) [nmol/μmol prot] | Kd (Aβ1-42 fibers) [nM] | Aβ Bmax1 (number of sites/monomer) (Aβ1-42 fibers) | Ki (Aβ1-42 fibres) [nM] | αsyn Bmax1 (α-syn fibers) [nmol/μmol prot] | Kd (α-syn fibers) [nM] | αsyn Bmax1 (number of sites/monomer) (α-syn fibers) | α-syn selectivity according to analysis of Kd (Tables 6 and 7) (α-syn fibers) | Tau Bmax1 (Tau fibers) [nmol/μmol prot] | Kd (Tau fibers) [nM] | Tau Bmax1 (number of sites/monomer) (Tau fibers) | Tau selectivity according to analysis of Kd (Tables 6 and 7) (Tau fibers) | α-syn selectivity according to analysis of Ki (Table 5) (α-syn fibres) | Ki (α-syn fibres) [nM] | Ki (Tau fibres) [nM] | Tau selectivity according to analysis of Ki (Table 5) (Tau fibres) | Ki (Tau fibres; [1]) [nM]
CN(C)c1ccc(C#Cc2cc3ccncc3[nH]2)cc1 [Compound 22b, 4-((1H-Pyrrolo[2,3-c]pyridin-2-yl)ethynyl)-N,N-dimethylaniline] | 2.3 ± 0.8 | 5.2 ± 3 | 1/400 | 91.5 ± 11 | 80.0 ± 42 | 1.4 ± 1 | 1/15 | selective | 37.1 ± 10 | 0.49 ± 0.2 | 1/30 | selective | selective | 28.7 ± 8 | 8.4 ± 2 | selective | –
CN(C)c1ccc(C#Cc2cc3ncccc3[nH]2)cc1 [Compound 22c, 4-((1H-Pyrrolo[3,2-b]pyridin-2-yl)ethynyl)-N,N-dimethylaniline] | 1.44 ± 0.6 | 2.9 ± 2 | 1/700 | 21.3 ± 7 | 82.5 ± 5 | 3.25 ± 0.2 | 1/12 | – | 26.5 ± 5 | 0.13 ± 0.05 | 1/40 | selective | – | 26 ± 16 | 12 ± 1 | selective | –
CN(C)c1ccc(C#Cc2cc3cc(F)cnc3[nH]2)cc1 [Compound 22g, 4-((5-Fluoro-1H-pyrrolo[2,3-b]pyridin-2-yl)ethynyl)-N,N-dimethylaniline] | – | – | – | 318 ± 95 | – | – | – | – | – | – | – | – | – | – | – | – | –
CN(C)c1ccc(C#Cc2cc3ccc(-c4ccsc4)nc3[nH]2)cc1 [Compound 25b, N,N-Dimethyl-4-((6-(thiophen-3-yl)-1H-pyrrol[2,3-b]pyridin-2-yl)ethynyl)aniline] | 11.0 ± 1 | 4.27 ± 0.6 | 1/90 | – | – | – | – | – | – | – | – | – | – | – | – | – | –
CC(=C(C#N)C#N)c1ccc2cc(N(C)CCF)ccc2c1 [FDDNP, reference compound] | 10.2 ± 1 | 4.2 ± 1 | 1/100 | 4.6 ± 3 | 39.5 ± 10 | 16.1 ± 6 | 1/25 | – | 138.5 ± 16 | 34.9 ± 6 | 1/7 | – | – | 25.1 ± 5 | – | – | 9.5 ± 1
CN(C)c1ccc(C#Cc2cc3c(F)ccnc3[nH]2)cc1 [Compound 22h, 4-((4-Fluoro-1H-pyrrolo[2,3-b]pyridin-2-yl)ethynyl)-N,N-dimethylaniline] | – | – | – | 244 ± 84 | – | – | – | – | – | – | – | – | – | – | – | – | –
CN(C)c1ccc(C#Cc2cc3cnccc3[nH]2)cc1 [Compound 22d, 4-((1H-Pyrrolo[3,2-c]pyridin-2-yl)ethynyl)-N,N-dimethylaniline] | 2.4 ± 0.8 | 3.6 ± 2 | 1/400 | – | 6.0 ± 1 | 1 ± 0.5 | 1/170 | selective | 12.5 ± 5 | 2.4 ± 0.9 | 1/80 | – | – | – | – | – | –
CN(C)c1ccc(C#Cc2cc3ccc(Cl)nc3[nH]2)cc1 [Compound 22e, 4-((6-Chloro-1H-pyrrolo[2,3-b]pyridin-2-yl)ethynyl)-N,N-dimethylaniline] | – | – | – | 909 ± 143 | – | – | – | – | – | – | – | – | selective | 49.9 ± 12 | 25.1 ± 8 | selective | –
CNc1ccc(/C=C/c2ccc(OCCOCCOCCF)nc2)cc1 [AV45, reference compound] | 3.33 ± 0.2 | 1.68 ± 0.2 | 1/300 | 2.2 ± 1 | 27.9 ± 19 | 24.3 ± 20 | 1/35 | – | 92.0 ± 20 | 19.6 ± 5 | 1/11 | – | – | 76.6 ± 44 | – | – | 30.6 ± 9
CN(C)c1ccc(C#Cc2cc3ccc(-c4cccs4)nc3[nH]2)cc1 [Compound 25a, N,N-Dimethyl-4-((6-(thiophen-2-yl)-1H-pyrrol[2,3-b]pyridin-2-yl)ethynyl)aniline] | 5.8 ± 0.32 | 4.9 ± 0.6 | 1/170 | – | 53.5 ± 10 | 0.49 ± 0.2 | 1/20 | selective | 70.4 ± 4 | 1.67 ± 0.5 | 1/10 | – | – | – | – | – | –
CN(C)c1ccc(C#Cc2cc3ccc(F)nc3[nH]2)cc1 [Compound 22f, 4-((6-Fluoro-1H-pyrrolo[2,3-b]pyridin-2-yl)ethynyl)-N,N-dimethylaniline] | 21.6 ± 3 | 16.8 ± 2 | 1/50 | 349 ± 256 | – | – | – | – | – | – | – | – | – | – | – | – | –
CN(C)c1ccc(C#Cc2cc3ccc(-c4ccc(F)nc4)nc3[nH]2)cc1 [Compound 25c, 4-((6-(6-Fluoropyridin-3-yl)-1H-pyrrolo[2,3-b]pyridin-2-yl)ethynyl)-N,N-dimethylaniline] | 11.0 ± 2 | 3.1 ± 1 | 1/90 | – | – | – | – | – | – | – | – | – | – | – | – | – | –
